Measurements taken from the NIST ThermoML archive (doi:10.1016/j.jct.2015.03.002).

Conditions: Liquid

CCCC[N+]1(C)CCCC1.FC(F)(F)C(F)(F)[P-](F)(F)(F)(C(F)(F)C(F)(F)F)C(F)(F)C(F)(F)F
viscosity [mPa·s]
Conditions	10000 kPa	15000 kPa	25000 kPa	50000 kPa	75000 kPa	100000 kPa	125000 kPa	150000 kPa
303.15 K, Concentric cylinders viscometry	198.9	221.8	273.1	465.5	791.6	–	–	–
303.15 K, Falling or rolling sphere viscometry	189.5	212.4	265.5	454.7	765.1	1274	2111	3485
313.15 K, Concentric cylinders viscometry	118.9	131.3	162.6	263.5	434.8	–	–	–
313.15 K, Falling or rolling sphere viscometry	113.5	124.7	150.6	241.3	386.8	620.3	995.1	1597
323.15 K, Concentric cylinders viscometry	–	–	–	–	234.7	–	–	–
323.15 K, Falling or rolling sphere viscometry	73.4	80	94.9	145.4	222.6	340.5	520.9	797
333.15 K, Falling or rolling sphere viscometry	48	52	61	90.7	134.3	198.1	291.7	429.1
343.15 K, Falling or rolling sphere viscometry	33.9	36.5	42.2	60.5	86.9	124.5	178.5	255.8
353.15 K, Falling or rolling sphere viscometry	24.7	26.6	30.7	43.4	60.6	84.1	116	159.3

CCCC[N+]1(C)CCCC1.O=S(=O)([O-])C(F)(F)F [1-butyl-1-methylpyrrolidinium trifluoromethanesulfonate]
viscosity [mPa·s]
Conditions	10000 kPa	15000 kPa	25000 kPa	50000 kPa	75000 kPa	100000 kPa	125000 kPa	150000 kPa
303.15 K, Concentric cylinders viscometry	147.2	158.4	181.8	249.5	341.1	–	–	–
303.15 K, Falling or rolling sphere viscometry	144.8	154.3	174.9	236.9	317.7	422.8	559.5	737.7
313.15 K, Concentric cylinders viscometry	–	–	–	148.1	202.2	–	–	–
313.15 K, Falling or rolling sphere viscometry	89.2	94.8	106.9	142.7	188.1	245.4	318.1	410.1
323.15 K, Falling or rolling sphere viscometry	58.9	62.5	70.2	92.3	119.5	153	194.1	244.7
333.15 K, Falling or rolling sphere viscometry	41.7	43.9	48.6	62.3	79	99.6	124.9	156
343.15 K, Falling or rolling sphere viscometry	29.9	31.4	34.7	44.2	55.7	69.6	86.4	106.8
353.15 K, Falling or rolling sphere viscometry	22.5	23.7	26.1	32.7	40.5	49.4	59.9	72

CC(C)CCCC(C)CCCC(C)CCCCC(C)CCCC(C)CCCC(C)C (configuration not stated) [2,6,10,15,19,23-hexamethyltetracosane]
viscosity [mPa·s], Falling or rolling sphere viscometry
Conditions	10000 kPa	15000 kPa	25000 kPa	50000 kPa	75000 kPa	100000 kPa	125000 kPa	150000 kPa
303.15 K	27.4	30.8	38.2	62.7	98.5	150.8	227.4	339.5
313.15 K	18.4	20.4	24.8	39.1	59.5	88.7	130.3	189.8
323.15 K	13	14.3	17.1	26.1	38.7	56.3	80.9	115.4
333.15 K	9.2	10.1	12.1	18.2	26.5	37.8	53.2	74
343.15 K	7	7.6	9	13.3	19	26.7	37	50.8
353.15 K	5.4	5.9	6.9	10.1	14.2	19.5	26.4	35.5
